Toxic doses and inconclusive results are not listed.
System: L1210 leukemia ip in BDF1 mice, survival T/C
Assay: NCI In Vivo Anticancer Drug Screen. Data for tumor model L1210 Leukemia (intraperitoneal) in B6D2F1 (BDF1) mice
Conditions: endpoint: mean survival time, higher = longer survival
Outline: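 Tumor was transplanted into mice, which were then dosed with test compound or vehicle alone. Survival was recorded for each group, and the treated figure was expressed relative to the control figure.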

[1] = dose: 100.0 mg/kg/injection, schedule: Q01DX001 (ip), vehicle: saline
[2] = dose: 200.0 mg/kg/injection, schedule: Q01DX001 (ip), vehicle: saline

c1ccc(-c2nnc(-c3ccccn3)s2)nc1
T/C (dose: 50.0 mg/kg/injection, schedule: Q01DX001 (ip), vehicle: water): 108 % of control | T/C (dose: 100.0 mg/kg/injection, schedule: Q01DX001 (ip), vehicle: water): 103 % of control | T/C (dose: 200.0 mg/kg/injection, schedule: Q01DX001 (ip), vehicle: water): 106 % of control | T/C (dose: 400.0 mg/kg/injection, schedule: Q01DX001 (ip), vehicle: water): 111 % of control

CCCCCCCCCCCCCCCC(=O)N(CCCN)CCCCN(CCCN)C(=O)CCCCCCCCCCCCCCC
T/C (dose: 100.0 mg/kg/injection, schedule: Q01DX001 (ip), vehicle: saline with Tween-80): 100 % of control | T/C (dose: 100.0 mg/kg/injection, schedule: Q01DX009 (ip), vehicle: saline with Tween-80): 103 % of control | T/C (dose: 100.0 mg/kg/injection, schedule: Q04DX003 (ip), vehicle: saline with Tween-80): 110 % of control | T/C (dose: 200.0 mg/kg/injection, schedule: Q01DX001 (ip), vehicle: saline with Tween-80): 96 % of control | T/C (dose: 200.0 mg/kg/injection, schedule: Q01DX009 (ip), vehicle: saline with Tween-80): 96 % of control | T/C (dose: 200.0 mg/kg/injection, schedule: Q04DX003 (ip), vehicle: saline with Tween-80): 107 % of control | T/C (dose: 400.0 mg/kg/injection, schedule: Q01DX001 (ip), vehicle: saline with Tween-80): 104 % of control | T/C (dose: 400.0 mg/kg/injection, schedule: Q01DX009 (ip), vehicle: saline with Tween-80): 96 % of control | T/C (dose: 400.0 mg/kg/injection, schedule: Q04DX003 (ip), vehicle: saline with Tween-80): 111 % of control

O=C(Nc1ccc(F)cc1)C(Cl)(Cl)Cl
T/C (dose: 100.0 mg/kg/injection, schedule: Q04DX002 (ip), vehicle: Klucel (hydroxypropylcellulose) (HPC)): 102 % of control | T/C (dose: 200.0 mg/kg/injection, schedule: Q04DX002 (ip), vehicle: Klucel (hydroxypropylcellulose) (HPC)): 94 % of control | T/C (dose: 400.0 mg/kg/injection, schedule: Q04DX002 (ip), vehicle: Klucel (hydroxypropylcellulose) (HPC)): 94 % of control

Cc1cc(=S)n(C)c2ccccc12
T/C (dose: 100.0 mg/kg/injection, schedule: Q01DX001 (ip), vehicle: carboxymethylcellulose (CMC)): 89 % of control | T/C (dose: 200.0 mg/kg/injection, schedule: Q01DX001 (ip), vehicle: carboxymethylcellulose (CMC)): 89 % of control | T/C (dose: 400.0 mg/kg/injection, schedule: Q01DX001 (ip), vehicle: carboxymethylcellulose (CMC)): 96 % of control

CN(C)[C@@H]1C(=O)C(C(=O)NCc2nc3[nH]cnc(=S)c3[nH]2)=C(O)[C@@]2(O)C(=O)C3=C(O)c4c(O)cccc4[C@@](C)(O)[C@H]3C[C@@H]12
T/C (dose: 16.0 mg/kg/injection, schedule: Q01DX Z (ip), vehicle: carboxymethylcellulose (CMC)): 107 % of control | T/C (dose: 32.0 mg/kg/injection, schedule: Q01DX Z (ip), vehicle: carboxymethylcellulose (CMC)): 119 % of control | T/C (dose: 56.0 mg/kg/injection, schedule: Q01DX Z (ip), vehicle: carboxymethylcellulose (CMC)): 103 % of control | T/C (dose: 64.0 mg/kg/injection, schedule: Q01DX Z (ip), vehicle: carboxymethylcellulose (CMC)): 112 % of control | T/C (dose: 128.0 mg/kg/injection, schedule: Q01DX Z (ip), vehicle: carboxymethylcellulose (CMC)): 150 % of control | T/C (dose: 192.0 mg/kg/injection, schedule: Q01DX Z (ip), vehicle: carboxymethylcellulose (CMC)): 179 % of control

CC(=O)OCC1OC(N2C(=O)/C(=C/c3cccnc3)SC2=S)C(OC(C)=O)C(OC(C)=O)C1OC(C)=O (configuration not stated)
T/C (dose: 25.0 mg/kg/injection, schedule: Q01DX005 (ip), vehicle: other): 94 % of control | T/C (dose: 50.0 mg/kg/injection, schedule: Q01DX005 (ip), vehicle: other): 96 % of control | T/C (dose: 100.0 mg/kg/injection, schedule: Q01DX005 (ip), vehicle: other): 96 % of control | T/C (dose: 200.0 mg/kg/injection, schedule: Q01DX005 (ip), vehicle: other): 105 % of control

CCOC(=O)NCc1ccc(Cl)c(C(=O)O)c1
T/C [1]: 105 % of control | T/C (dose: 100.0 mg/kg/injection, schedule: Q04DX003 (ip), vehicle: saline): 88 % of control | T/C [2]: 94 % of control | T/C (dose: 200.0 mg/kg/injection, schedule: Q04DX003 (ip), vehicle: saline): 101 % of control | T/C (dose: 400.0 mg/kg/injection, schedule: Q01DX001 (ip), vehicle: saline): 93 % of control | T/C (dose: 400.0 mg/kg/injection, schedule: Q04DX003 (ip), vehicle: saline): 93 % of control

CC(=O)Nc1nc(Cl)c(N)c(SCc2ccccc2)n1
T/C (dose: 100.0 mg/kg/injection, schedule: Q01DX001 (ip), vehicle: Klucel (hydroxypropylcellulose) (HPC)): 98 % of control | T/C (dose: 100.0 mg/kg/injection, schedule: Q04DX003 (ip), vehicle: Klucel (hydroxypropylcellulose) (HPC)): 91 % of control | T/C (dose: 200.0 mg/kg/injection, schedule: Q01DX001 (ip), vehicle: Klucel (hydroxypropylcellulose) (HPC)): 98 % of control | T/C (dose: 200.0 mg/kg/injection, schedule: Q04DX003 (ip), vehicle: Klucel (hydroxypropylcellulose) (HPC)): 92 % of control | T/C (dose: 400.0 mg/kg/injection, schedule: Q01DX001 (ip), vehicle: Klucel (hydroxypropylcellulose) (HPC)): 98 % of control | T/C (dose: 400.0 mg/kg/injection, schedule: Q04DX003 (ip), vehicle: Klucel (hydroxypropylcellulose) (HPC)): 92 % of control

Oc1ccc(O)c2c1CNCC2O (configuration not stated)
T/C [1]: 97 % of control | T/C [2]: 104 % of control

CCN(CC)CCCNc1ncnc2c1C(c1ccccc1)c1ccccc1-2 (configuration not stated)
T/C (dose: 5.0 mg/kg/injection, schedule: Q01DX001 (ip), vehicle: saline): 98 % of control | T/C (dose: 10.0 mg/kg/injection, schedule: Q01DX001 (ip), vehicle: saline): 96 % of control | T/C (dose: 20.0 mg/kg/injection, schedule: Q01DX001 (ip), vehicle: saline): 93 % of control | T/C (dose: 40.0 mg/kg/injection, schedule: Q01DX001 (ip), vehicle: saline): 93 % of control

From PubChem BioAssay AID248 (DTP/NCI, 2004)
